Measured values from US7858621B2 (Amorepacific Corporation, priority 2006, dated 2010).

Target: T1, vanilloid receptor (Rattus norvegicus, UniProt O35433)
T1 construct: DRG nerve cells from the primary culture of 2 days were equilibrated; endogenous in cells; host or cells: primary culture of dorsal root ganglion neurons from neonatal SD rats
Test: 45Ca influx test in cultured neonatal rat DRG neurons, inhibition of capsaicin response
Type: cell-based
Details: neonatal rat DRG neurons, capsaicin 0.5 μM, 45Ca influx; read-out: Antagonist Calcium Uptake Test (IC50)
Procedure, shortened: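 45Ca influx measured by scintillation counting of SDS-eluted neurons after 10 min at room temperature with test compound, 0.5 μM capsaicin (final) and 10 μCi/ml 45Ca in Ca/Mg-free HEPES-HBSS pH 7.4. Cells: primary DRG neurons from newborn SD rats, cultured 2 days with NGF and Ara-C.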

T1 sequence (O35433 whole entry): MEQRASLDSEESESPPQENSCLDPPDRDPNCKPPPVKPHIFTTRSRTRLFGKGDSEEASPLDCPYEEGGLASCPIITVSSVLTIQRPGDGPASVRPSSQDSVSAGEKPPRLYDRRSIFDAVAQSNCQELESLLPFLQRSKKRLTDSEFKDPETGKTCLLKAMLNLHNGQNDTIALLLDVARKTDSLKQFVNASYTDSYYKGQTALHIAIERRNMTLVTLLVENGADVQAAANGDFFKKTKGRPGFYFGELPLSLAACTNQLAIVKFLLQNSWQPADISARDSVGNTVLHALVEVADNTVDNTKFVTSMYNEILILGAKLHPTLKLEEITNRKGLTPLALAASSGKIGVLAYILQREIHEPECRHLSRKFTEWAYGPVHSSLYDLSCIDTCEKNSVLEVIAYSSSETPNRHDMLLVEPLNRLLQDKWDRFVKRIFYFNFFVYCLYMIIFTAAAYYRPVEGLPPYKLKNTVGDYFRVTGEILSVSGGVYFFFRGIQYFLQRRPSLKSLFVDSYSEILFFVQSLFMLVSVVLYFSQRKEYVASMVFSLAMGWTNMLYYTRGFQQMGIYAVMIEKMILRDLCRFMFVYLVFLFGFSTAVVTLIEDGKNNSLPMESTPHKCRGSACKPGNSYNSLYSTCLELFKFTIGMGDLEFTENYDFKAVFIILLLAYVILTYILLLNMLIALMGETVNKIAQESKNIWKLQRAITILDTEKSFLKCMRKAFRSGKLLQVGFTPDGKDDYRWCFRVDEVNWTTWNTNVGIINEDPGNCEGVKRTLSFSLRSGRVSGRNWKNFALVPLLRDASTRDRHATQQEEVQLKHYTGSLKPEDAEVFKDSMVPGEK

| Structure (SMILES) | IC50 [nM] |
| --- | --- |
| C#Cc1cc(CNC(=O)/C=C/c2ccc(C(F)(F)F)nc2Sc2ccccc2)cc(F)c1NS(C)(=O)=O [Example 139, N-(3-Ethynyl-5-fluoro-4-methanesulfonylamino-benzyl)-3-(2-phenylthio-6-trifluoromethyl-pyridin-3-yl)-acrylamide] | 340 |
| CCCCc1nc(C(F)(F)F)ccc1C#CC(=O)N[C@H](C)c1ccc(NS(C)(=O)=O)c(F)c1 [Example 274, 3-(2-Butyl-6-trifluoromethyl-pyridin-3-yl)-propynoic acid [1-(3-fluoro-4-methane sulfonylamino-phenyl)-ethyl]-amide] | 1200 |
| CC(C)Cc1nc(C(F)(F)F)ccc1/C=C/C(=O)NCc1ccc(NS(C)(=O)=O)c(F)c1 [Example 147, N-(3-Fluoro-4-methanesulfonylamino-benzyl)-3-(2-isobutyl-6-trifluoromethyl-pyridin-3-yl)-acrylamide] | 220 |
| C#Cc1cc(CNC(=O)/C=C/c2ccc(C(F)(F)F)nc2SCCC)cc(F)c1NS(C)(=O)=O [Example 185, N-(3-Ethynyl-5-fluoro-4-methanesulfonylamino-benzyl)-3-(2-propylthio-6-trifluoromethyl-pyridin-3-yl)-acrylamide] | 280 |
| CC(C)(C)c1ccc(OCC(=O)NCc2ccc(NS(C)(=O)=O)c(F)c2)c(Br)n1 [Examples 28] | 1600 |
| COC1CCN(c2nc(C(F)(F)F)ccc2C=CC(=O)NCc2ccc(NS(C)(=O)=O)c(F)c2)C1 (stereo not drawn) [Example 90, N-(3-Fluoro-4-methanesulfonylamino-benzyl)-3-[2-(3-methoxy-pyrrolidin-1-yl)-6-trifluoromethyl-pyridin-3-yl]-acrylamide] | 410 |
| CCCCOc1nc(C(F)(F)F)ccc1/C=C/C(=O)N[C@H](C)c1ccc(NS(C)(=O)=O)c(F)c1 [Example 169, (R)-3-(2-Butoxy-6-trifluoromethyl-pyridin-3-yl)-N-[1-(3-fluoro-4-methanesulfonylamino-phenyl)-ethyl]-acrylamide] | 170 |
| CC(C)c1nc(C(F)(F)F)ccc1/C=C/C(=O)NCc1cc(F)c(NS(C)(=O)=O)c(F)c1 [Example 232, N-(3,5-Difluoro-4-methanesulfonylamino-benzyl)-3-(2-isopropyl-6-trifluoromethyl-pyridin-3-yl)-acrylamide] | 190 |
| C[C@@H](NC(=O)/C=C/c1ccc(C(F)(F)F)nc1CCc1ccccc1)c1ccc(NS(C)(=O)=O)c(F)c1 [Example 237, (R)—N-[1-(3-Fluoro-4-methanesulfonylamino-phenyl)-ethyl]-3-(2-phenethyl-6-trifluoromethyl-pyridin-3-yl)-acrylamide] | 96 |
| Cc1cc(CNC(=O)/C=C/c2ccc(C(F)(F)F)nc2N(C)c2ccccc2)ccc1NS(C)(=O)=O [Example 167, N-(4-methanesulfonylamino-3-methyl-benzyl)-3-[2-(methyl-phenylamino)-6-trifluoromethyl-pyridin-3-yl]-acrylamide] | 120 |
| C=Cc1cc(CNC(=O)/C=C/c2ccc(C(F)(F)F)nc2N2CCOCC2)ccc1NS(C)(=O)=O [Example 6, N-(4-Methanesulfonylamino-3-vinyl-benzyl)-3-(2-morpholin-4-yl-6-trifluoromethyl-pyridin-3-yl)-acrylamide] | 300 |
| CS(=O)(=O)Nc1ccc(CNC(=O)/C=C/c2cnc(Cl)cc2C(F)(F)F)cc1F [Example 53, 3-(6-Chloro-4-trifluoromethyl-pyridin-3-yl)-N-(3-fluoro-4-methanesulfonylamino-benzyl)-acrylamide] | > 10000 |
| C#Cc1cc(CNC(=O)/C=C/c2ccc(C(F)(F)F)nc2N2CCCC(C(=O)OCC)C2)cc(F)c1NS(C)(=O)=O (stereo not drawn) [Example 114, N-(3-Ethynyl-5-fluoro-4-methansulfonylamino-benzyl)-3-[2-(3-ethoxycarbonyl-piperid-1-yl)-6-trifluoromethyl-pyridin-3-yl]-acrylamide] | 430 |
| CS(=O)(=O)Nc1c(F)cc(CNC(=O)/C=C/c2ccc(C(F)(F)F)nc2N2CCOCC2)cc1F [Example 21, N-(3,5-Difluoro-4-methanesulfonylamino-benzyl)-3-(2-morpholin-4-yl-6-trifluoromethyl-pyridin-3-yl)-acrylamide] | 1100 |
| CC(C)Cc1nc(C(F)(F)F)ccc1/C=C/C(=O)NCc1cc(F)c(NS(C)(=O)=O)c(F)c1 [Example 226, N-(3,5-Difluoro-4-methanesulfonylamino-benzyl)-3-(2-isobutyl-6-trifluoromethyl-pyridin-3-yl)-acrylamide] | 85 |
| C#Cc1cc(CNC(=O)/C=C/c2ccc(C(F)(F)F)nc2-c2ccsc2)cc(F)c1NS(C)(=O)=O [Example 119, N-(3-Ethynyl-5-fluoro-4-methanesulfonylamino-benzyl)-3-(2-thien-3-yl-6-trifluoromethyl-pyridin-3-yl)-acrylamide] | 270 |
| CCCCc1nc(C(F)(F)F)ccc1/C=C/C(=O)N[C@H](C)c1cc(F)c(NS(C)(=O)=O)c(F)c1 [Example 228, (R)-3-(2-Butyl-6-trifluoromethyl-pyridin-3-yl)-N-[1-(3,5-difluoro-4-methanesulfonylamino-phenyl)-ethyl]-acrylamide] | 12 |
| CC(C)Nc1nc(C(F)(F)F)ccc1/C=C/C(=O)N[C@H](C)c1ccc(NS(C)(=O)=O)c(F)c1 [Example 218, (R)—N-[1-(3-Fluoro-4-methanesulfonylamino-phenyl)-ethyl]-3-(2-isopropylamino-6-trifluoromethyl-pyridin-3-yl)-acrylamide] | 46 |
| C[C@@H](NC(=O)/C=C/c1ccc(C(F)(F)F)nc1N(C)c1ccccc1)c1ccc(NS(C)(=O)=O)c(F)c1 [Example 165, (R)—N-[1-(3-Fluoro-4-methanesulfonylamino-phenyl)-ethyl]-3-[2-(methyl-phenylamino)-6-trifluoromethyl-pyridin-3-yl]-acrylamide] | 160 |
| CCC(C)Nc1nc(C(F)(F)F)ccc1/C=C/C(=O)NCc1cc(F)c(NS(C)(=O)=O)c(C#N)c1 (stereo not drawn) [Example 124, 3-(2-sec-Butylamino-6-trifluoromethyl-pyridin-3-yl)-N-(3-cyano-5-fluoro-4-methanesulfonylamino-benzyl)-acrylamide] | 88 |
| CC(C)Nc1nc(C(F)(F)F)ccc1/C=C/C(=O)NCc1cc(F)c(NS(C)(=O)=O)c(F)c1 [Example 217, N-(3,5-Difluoro-4-methanesulfonylamino-benzyl)-3-(2-isopropylamino-6-trifluoromethyl-pyridin-3-yl)-acrylamide] | 130 |
| C#Cc1cc(CNC(=O)/C=C/c2ccc(C(F)(F)F)nc2CCCOC)cc(F)c1NS(C)(=O)=O [Example 155, N-(3-Ethynyl-5-fluoro-4-methanesulfonylamino-benzyl)-3-[2-(3-methoxy-propyl)-6-trifluoromethyl-pyridin-3-yl]-acrylamide] | 780 |
| CC(C)(C)c1ccc(OCC(=O)NCc2ccc(NS(C)(=O)=O)c(F)c2)cn1 [Example 29, 2-(6-tert-Butyl-pyridin-3-yloxy)-N-(3-fluoro-4-methanesulfonylamino-benzyl)-acetamide] | > 10000 |
| CC(C)Cc1nc(C(F)(F)F)ccc1/C=C/C(=O)NCc1ccc(NS(C)(=O)=O)cc1 [Example 265, 3-(2-Isobutyl-6-trifluoromethyl-pyridin-3-yl)-N-(4-methanesulfonylamino-benzyl)-acrylamide] | 770 |
